Results from patent US20150284362A1, “CARBAZOLE-CONTAINING AMIDES, CARBAMATES, AND UREAS AS CRYPTOCHROME MODULATORS” (ReSet Therapeutics, Inc., priority 2014, published 2015).

Legend:
[1] = tested on: core clock gene mRNAs in liver; experiment: 24 hour gene expression study, liver mRNA by RT-qPCR, Balb/c mice; format: in vivo, mouse; conditions: 50 mg/kg PO BID, 7 doses
Experimental: (§1) E.Z.N.A.® HP Total RNA Isolation Kits (R6812-01 and the protocol described in the Manual, Revised 2010) were utilized to prepare and isolate RNA from the liver samples. To prepare the RNA samples, 10-30 mg of sample was removed from RNA-Later and placed in a 1.5 ml microfuge tube. GTC lysis buffer (700 μl) was added to the tissue, which was homogenized with a rotor-stator homogenizer (e.g. Tissue-Tearor, Model #985370 BioSpec Products with 4.5 mm probe, Cat. #985370-04), and then centrifuged at full speed (≧13,000×g) for 5 minutes. The cleared supernatant was transferred by pipetting to a DNA Clearance Column Pre-inserted in a 2 mL Collection Tube. The assembled column was centrifuged at 13,000×g for 1 minute, and the flow-through was saved. An equal volume (700 μl) of 70% ethanol was added to the lysate and mixed. The sample was then applied to a HiBind RNA spin column placed into a 2 ml collection tube, which was centrifuged at 10,000×g for 60 seconds at room temperature. RNA Wash Buffer I (250 μl) was added by pipetting directly onto a new HiBind RNA column inserted in a 2 ml collection tube. The assembled column was centrifuged at 10,000×g for 60 seconds. The RNA column was placed into a new 2 ml collection tube. DNase I stock solution is pipetted (75 μl) directly onto the surface of the HiBind RNA resin in each column (Using DNAse Digestion with RNase Free DNase Set (E1091): for each HiBind RNA column, the DNase I stock solution was prepared as followed: E.Z.N.A.® DNase I Digestion Buffer 73.5 μl, RNase Free DNase I (20 Kunitz/μl) 1.5 μl=Total Volume 75 μl.). The column with bound RNA was incubated at room temperature (25-30° C.) for 15 minutes. RNA Wash Buffer I (500 μl) was added to the column and placed on a bench top for 2 minutes. After centrifuging at 10,000×g for 60 seconds, discarding the flow-through, 500 μl of RNA Wash Buffer II was added and centrifuged at 10,000×g for 60 seconds. Another 500 μl of RNA Wash Buffer II was added and the column assembly was centrifuged at 10,000×g for 60 seconds. The column was centrifuged for 2 minutes at maximum speed to completely dry the HiBind matrix. […]
RediPlate 96 RiboGreen RNA Quantification Kit (Invitrogen) RediPlate standard curve was prepared by transferring 20 μl reconstituted RNA standard to a RediPlate well reconstituted in 180 μl RediPlate TE buffer. […] After transferring 5 μl to RediPlate well reconstituted in 195 μl TE buffer and incubating 10 min. at RT, Fluorescence Intensity of wells with standards and samples were read in a Tecan M200 with Excitation set at 480 nm and Emission set at 520 nm with the gain set to ˜70%. […] A standard curve was generated in GraphPad Prism and sample readings (unknowns) are interpolated via linear regression analysis, and the RNA sample concentrations were calculated. […]

[2] = tested on: core clock and gluconeogenic gene mRNAs in liver; experiment: 24 hour gene expression study, liver mRNA by RT-qPCR, C57Bl/6J DIO mice; format: in vivo, mouse; conditions: 50 mg/kg PO BID, 5 doses
Description: Male C57Bl/6J DIO mice were purchased at 17 weeks of age (The Jackson Laboratory, Sacramento, Calif.) and acclimated for a 2 week period before being used for the experiment. Overall group size was 15 per treatment, divided into 5 time-points to give a final group size of 3 mice.
In total, each mouse received 5 doses of compound over the course of the experiment. Mice were weighed and randomly assigned to each treatment based on weight the evening before the commencement of the study. Beginning on Day 3 at 3:00 PM, a group of animals from the vehicle and Compound 72-treated groups were euthanized using CO2 asphyxiation, 50 mg of liver, epididymal fat, and skeletal muscle, respectively, were excised and placed in tube containing 500 μl of RNALater. This procedure took place for the remainder of the time-point groups at their given harvest times. Plasma samples were also taken for each animal and frozen, to be used for later measurement of compound levels.
as §1, with “matrix. The column was placed in a clean 1.5 ml microcentrifuge tube and 40-70 μl of molecular biology grade water is added.” for “matrix.”
RediPlate 96 RiboGreen RNA Quantification Kit (Invitrogen) RediPlate standard curve was prepared by transferring 20 μl reconstituted RNA standard to a RediPlate well reconstituted in 180 μl RediPlate TE buffer. […]

db/db mice = experiment: Single dose at peak or nadir of clock gene expression, OGTT in db/db mouse model of type II diabetes; format: in vivo; conditions: single dose 50 mg/kg PO at peak (ZT0) of Cry1 and Bmal1 expression
Description: Mice were split into two study arms, to be dosed at either the peak or nadir of Cry1 and Bmal1 gene expression. […] Mice dosed at ZT10 were fasted beginning at 8:30 am in the same manner.
Significance was accepted when p<0.05.

[3] = tested on: core clock gene mRNAs in liver; experiment: Single dose at peak (ZT0) or nadir (ZT10) of Cry1, liver core clock gene mRNAs; format: in vivo, mouse; conditions: db/db mice; single dose 50 mg/kg at ZT0 or ZT10; liver 7.5 hours later
Experimental: For compounds that interact directly with the core clock mechanism, the time of dosing may be critical for maximizing their effects. […] The former (ZT0) is coincident with the peak of Cry1 and Bmal1 protein in mouse liver and the latter (ZT10) corresponds to the approximate nadir of Cry1 and Bmal1. Liver tissue was taken 7.5 hours later for each, and the samples were examined for core clock gene mRNAs by RT-qPCR.

[4] = at ZT8 and 32 hours after ZT0 vs vehicle

In the case of `O=C1NCCN1CC(O)Cn1c2ccc(F)cc2c2cc(F)ccc21` (centres unmarked) [Compound 72, 1-(3-(3,6-difluoro-9H-carbazol-9-yl)-2-hydroxypropyl)imidazolidin-2-one], the “Bmal1 mRNA in liver” value [1, 4] is reported as “substantially increased”, the “Per2 mRNA in liver” value ([1]; over 24 hours vs vehicle) is reported as “suppressed” and the “Cry1 mRNA in liver” value ([1]; vs vehicle) is reported as “suppressed during its peak of expression during the dark period”. The “Cry2 mRNA in liver (daytime peak)” value ([1]; vs vehicle) was “strongly attenuated”, the “Bmal1 mRNA in liver” value [2, 4] was “substantially increased” and the “Per2 mRNA in liver” value ([2]; over 24 hours vs vehicle) was “suppressed”. The “Cry1 mRNA in liver” value ([2]; vs vehicle) was “suppressed during its peak of expression during the dark period”, the “Cry2 mRNA in liver (daytime peak)” value ([2]; vs vehicle) was “strongly attenuated” and the “circadian pattern of mRNAs for gluconeogenic genes Pck1 and G6Pc in liver” value ([2]; vs vehicle) was “substantially altered”. The “effect on OGTT measurement” value (db/db mice) was “apparent effect” and the “impact on core clock gene mRNAs in liver, dosing at peak vs nadir” value [3] was “greater relative impact on the clock mRNAs at the peak compared to the nadir”.
